In patent US20210024542A1 (Torcept Therapeutics, Inc., priority 2018, published 2021):

How the values were obtained:
A431 = experiment: OncoPanel cell proliferation assay, A431; format: cell-based, human
Procedure: (§1) Cells were grown in RPMI 1640, 10% FBS, 2 mM L-alanyl-L-glutamine, 1 mM Na pyruvate, or a special medium. Cells were seeded into 384-well plates and incubated in a humidified atmosphere of 5% CO2 at 37° C. Compounds were added the day following cell seeding. At the same time, a time zero untreated cell plate was generated. After a 3-day incubation period, cells were fixed and stained to allow fluorescence imaging of nuclei. Compounds (1 mM stock solutions) were serially diluted in half-log steps from the highest test concentration ([…]), and assayed over 10 concentrations with a maximum assay concentration of 0.1% DMSO. Automated fluorescence microscopy was carried out using a Molecular Devices ImageXpress Micro XL high-content imager, and images were collected with a 4× objective. 16-bit TIFF images were acquired and analyzed with MetaXpress 5.1.0.41 software.
(§2) Cell proliferation was measured by the fluorescence intensity of an incorporated nuclear dye. The output is referred to as the relative cell count, where the measured nuclear intensity is transformed to percent of control (POC) using the following formula: […]
(§3) Cellular response parameters were calculated using nonlinear regression to a sigmoidal single-site dose response model:
(§4) Where y is a response measured at concentration x, A and B are the lower and upper limits of the response, C is the concentration at the response midpoint (EC50), and D is the Hill Slope (Ref. 1).
(§5) EC50 is the test compound concentration at the curve inflection point or half the effective response (parameter C of the fitted curve solution). GI50 is the concentration needed to reduce the observed growth by half (midway between the curve maximum and the time zero value). “Cell Count Activity Area” is an estimate of the integrated area above the curve (Barretina, et al. The Cancer Cell Line Encyclopedia enables predictive modelling of anticancer drug sensitivity. Nature 483: 603-607). […] In rare instances, values <0 or >10 may be observed. […] Curve-fitting, calculations, and report generation was performed using a custom data reduction engine and MathIQ based software (AIM).

CHP-212 = experiment: OncoPanel cell proliferation assay, CHP-212
Procedure: (§7) Cells were seeded into 384-well plates and incubated in a humidified atmosphere of 5% CO2 at 37° C. Compounds were added the day following cell seeding. At the same time, a time zero untreated cell plate was generated. After a 3-day incubation period, cells were fixed and stained to allow fluorescence imaging of nuclei. Compounds (1 mM stock solutions) were serially diluted in half-log steps from the highest test concentration (1 micromol), and assayed over 10 concentrations with a maximum assay concentration of 0.1% DMSO. Automated fluorescence microscopy was carried out using a Molecular Devices ImageXpress Micro XL high-content imager, and images were collected with a 4× objective. 16-bit TIFF images were acquired and analyzed with MetaXpress 5.1.0.41 software.

CAMA-1 = experiment: OncoPanel cell proliferation assay, CAMA-1; conditions: CAMA-1, scale 0-10
Procedure: as §7

A388 = experiment: OncoPanel cell proliferation assay, A388; format: cell-based, human; conditions: Homo sapiens, 72 h, A388, 3-day incubation
Procedure: as §1, with “Cells” for “Cells were grown in RPMI 1640, 10% FBS, 2 mM L-alanyl-L-glutamine, 1 mM Na pyruvate, or a special medium. Cells”
as §2, §3, §4
(§6) GI50 is the concentration needed to reduce the observed growth by half (midway between the curve maximum and the time zero value). […] In rare instances, values <0 or >10 may be observed. […] Curve-fitting, calculations, and report generation was performed using a custom data reduction engine and MathIQ based software (AIM).

U2OS = experiment: OncoPanel cell proliferation assay, U2OS; format: cell-based, human
Procedure: as §1, with “Cells” for “Cells were grown in RPMI 1640, 10% FBS, 2 mM L-alanyl-L-glutamine, 1 mM Na pyruvate, or a special medium. Cells”
as §2, §3, §4, §6

SW579 = experiment: OncoPanel cell proliferation assay, SW579; format: cell-based, human
Procedure: as §1, §2, §3, §4, §5

SK-NEP-1 = experiment: OncoPanel cell proliferation assay, SK-NEP-1; conditions: SK-NEP-1, scale 0-10
Procedure: as §7

SNU-5 = experiment: OncoPanel cell proliferation assay, SNU-5; format: cell-based, human; conditions: Homo sapiens, 72 h, SNU-5, 3-day incubation
Procedure: as §1, with “Cells” for “Cells were grown in RPMI 1640, 10% FBS, 2 mM L-alanyl-L-glutamine, 1 mM Na pyruvate, or a special medium. Cells”
as §2, §3, §4, §6

CaOV3 = experiment: OncoPanel cell proliferation assay, CaOV3; format: cell-based, human
Procedure: as §1, §2, §3, §4, §5

AGS = experiment: OncoPanel cell proliferation assay, AGS; format: cell-based, human; conditions: scale 0-10
Procedure: as §1, §2, §3, §4, §5

ST486 = experiment: OncoPanel cell proliferation assay, ST486; format: cell-based, human
Procedure: as §1, §2, §3, §4, §5

NCI-H510A = experiment: OncoPanel cell proliferation assay, NCI-H510A; format: cell-based, human
Procedure: as §1, §2, §3, §4, §5

[1] = Homo sapiens, 72 h, 3-day incubation, read-out: Cell Count EC50
[2] = Homo sapiens, 72 h, 3-day incubation, read-out: Cell Count IC50

EC50 (A431; Homo sapiens, A-431, 72 h, A431, 3-day incubation, read-out: Cell Count EC50): > 1 µM
GI50 (A431; Homo sapiens, A-431, 72 h, A431, 3-day incubation, read-out: Cell Count GI50): > 1 µM
IC50 (A431; Homo sapiens, A-431, 72 h, A431, 3-day incubation, read-out: Cell Count IC50): > 1 µM
EC50 (U2OS; [1]): 0.00065 µM
IC50 (U2OS; [2]): > 1 µM
IC50 (SW579; Homo sapiens, 72 h, SW579, 3-day incubation, read-out: Cell Count IC50): > 1 µM
GI50 (SNU-5; read-out: Cell Count GI50): 0.024 µM
IC50 (SNU-5; read-out: Cell Count IC50): > 1 µM
EC50 (NCI-H510A; [1]): > 1 µM
GI50 (NCI-H510A; Homo sapiens, 72 h, 3-day incubation, read-out: Cell Count GI50): > 1 µM
IC50 (NCI-H510A; [2]): > 1 µM
Compound: CO[C@H]1C[C@@H]2CC[C@@H](C)[C@@](O)(O2)C(=O)C(=O)N2CCCC[C@H]2C(=O)O[C@H]([C@H](C)C[C@@H]2CC[C@@H](O)[C@H](OC)C2)CC(=O)[C@H](C)/C=C(\C)[C@@H](O)[C@@H](OC)C(=O)[C@H](C)C[C@H](C)/C=C/C=C/C=C/1C [Rapamycin, reference compound]
Cell Count Activity Area (A431; A431, scale 0-10): 0.28
Cell Count Activity Area (CHP-212; CHP-212, scale 0-10): 4.13
IC50 (CHP-212; Homo sapiens, CHP-212, 72 h, read-out: Cell Count IC50): > 1 µM
Cell Count Activity Area (CAMA-1): 4.07
EC50 (A388; read-out: Cell Count EC50): > 1 µM
GI50 (A388; read-out: Cell Count GI50): > 1 µM
IC50 (A388; read-out: Cell Count IC50): > 1 µM
Cell Count Activity Area (U2OS; scale 0-10): 3.04
Cell Count Activity Area (SW579; SW579, scale 0-10): 4.77
Cell Count Activity Area (SK-NEP-1): 4.22
Cell Count Activity Area (CaOV3; CaOV3, scale 0-10): 2.40
EC50 (CaOV3; Homo sapiens, Caov-3, 72 h, CaOV3, 3-day incubation, read-out: Cell Count EC50): > 1 µM
GI50 (CaOV3; Homo sapiens, Caov-3, 72 h, CaOV3, 3-day incubation, read-out: Cell Count GI50): > 1 µM
IC50 (CaOV3; Homo sapiens, Caov-3, 72 h, CaOV3, 3-day incubation, read-out: Cell Count IC50): > 1 µM
Cell Count Activity Area (AGS): 5.67
IC50 (ST486; Homo sapiens, 72 h, ST486, 3-day incubation, read-out: Cell Count IC50): > 1 µM
Cell Count Activity Area (ST486; ST486, scale 0-10): 3.99
Cell Count Activity Area (NCI-H510A; scale 0-10): 1.63
